Series [1] relates to 4T1-luc2 cells. Put plainly: Dry ice dead cell assay (cryo-induced cell death), fluorescence and radioactivity read-out. The class given is cell-based, mouse. The settings on record: 100 nM, 15 min incubation, 4T1 cells; for accumulation in the dead cells area by radioactivity (RA) measurement: phosphor imaging. The procedure: In vitro, cell death was studied using a cryo-induced cell death assay as previously described. In short, 4T1-luc2 cells were seeded onto 24-well tissue culture plates (Sigma-Aldrich) and grown until confluent. After discarding the medium, a bar of dry ice 3–5 mm in diameter was applied to the underside of the culture well for 20 s. Subsequently, the cells were incubated in the dark for 15 min at RT with HQ4 at a concentration of 100 nM. After incubation, the samples were gently washed with phosphate-buffered saline (PBS) and subsequently scanned for fluorescence using the Odyssey Infrared Imager 9120 (LI-COR) and for radioactivity via phosphor imaging on the Typhoon 9410 imager (GE Healthcare).
Fig. 2 In vitro necrosis avid properties of [^111In]DTPA-HQ4 by fluorescence and radioactivity measurements. a Necrotic cell death in confluent monolayers of 4T1 mouse breast cancer cells was induced by applying dry ice to the underside of the culture well. Cells were subsequently incubated for 15 min with one of the following: HQ4, HQ4-DTPA, [^111In]DTPA-HQ4, [^111In]DTPA, or ^111In-Cl3 (100 nM, 10 μg). After subsequent washing with PBS, cells were imaged either for fluorescence (FLI, upper panel) or for radioactivity (RA, lower panel). NL = not labeled. b Calculated signal-to-background (S/B) ratio (FLI and RA) of the different compounds obtained from the dry ice assay. The S/B ratio was defined as the signal intensity obtained from the area of dead cells in the center of the well divided by the signal intensity obtained from an area of living cells of the same size in the periphery.

A further series relates to 4T1 tumor bearing mice. Put plainly: Biodistribution (gamma counting of organs) in 4T1 tumor bearing mice, model of spontaneous tumor necrosis. Type of series: in vivo, mouse. The conditions noted are these: 24 h after i.v. injection, 10 μg, 30-35 MBq. The method, then:
Approximately 1 × 10^5 4T1-luc2 cells, suspended in 15 μl PBS, were implanted bilateral and subcutaneously onto the upper back of nude mice. Tumors were grown until they reached a size of 6–7 mm in diameter which developed roughly after 1.5–2 weeks of tumor implantation.
(§1) To study the specificity of the radiolabeled HQ4-DTPA versus radiolabeled DTPA in vivo, 10 μg [^111In]DTPA-HQ4 (=10 nmol per mouse) or 10 μg [^111In]DTPA was injected i.v. into mice bearing 4T1-luc2 tumors (n = 3 and 4, respectively). The total injected dose (ID) in each mouse was determined in a dose-calibrator (VDC101, Veenstra Instruments, Joure, the Netherlands).
After the last imaging time point, mice were sacrificed and several tissues were excised, weighed, and counted for radioactivity (Wizard2 2470 automatic gamma scintillation counter, Perkin Elmer, USA) to determine the percentage of the injected dose per gram (%ID/g). The %ID/g was calculated as follows: (((MBq measured in tissue/injected dose) × 100 %) / weight of tissue).
Fig. 3 Optical imaging, SPECT, and biodistribution of [^111In]DTPA-HQ4 in 4T1 breast tumor bearing mice. a Whole body FLI (coronal view) obtained 6–72 h after tail vein injection of [^111In]DTPA-HQ4 (10 nmol, 30–35 MBq). […] Six, 24, 48, and 72 h after probe injection, mice (n = 3 per time point) were sacrificed and the organs, body fluids, and tumors were dissected, weighed, and measured for radioactivity in a gamma counter. At each time point, the amount of radioactivity in the organs is expressed as percentage of the injected dose divided by […] (%ID/w). d TUNEL-stained histological section of a representative 4T1 mouse breast tumor showing a large area of necrosis (brown).
Supplementary Figure 4: Biodistribution of [111In]DTPA. a) Biodistribution of the free chelate [111In]DTPA in 4T1 tumor bearing mice. 24h after probe injection (10 µg, 30-35 MBq), mice (n=4) were sacrificed and the organs, body fluids and tumors were dissected, weighted and measured for radioactivity in a gamma counter. […]

Series [2] can be described thus: Radioactivity remaining in the whole mouse body after injection (clearance). Type of series: in vivo. The settings on record: for total injected dose retained in the body: whole mouse body. The method, then: as §1
Supplementary Figure 4: Biodistribution of [111In]DTPA. a) Biodistribution of the free chelate [111In]DTPA in 4T1 tumor bearing mice. 24h after probe injection (10 µg, 30-35 MBq), mice (n=4) were sacrificed and the organs, body fluids and tumors were dissected, weighted and measured for radioactivity in a gamma counter. At each time point, the amount of radioactivity in each organ and tumor is expressed as percentage of the injected dose divided by the weight (%ID/w). b) Total amount of remaining [111In]DTPA-HQ4 and [111In]DTPA in the whole mouse body (% of ID) at the indicated time points 6 to 72h after probe injection.
(§2) (1 picture or pasted object on this page, not shown here)

Series [3] relates to 4T1-luc2 cells. Put plainly: In vitro MTS viability assay. Type of series: cell-based. The conditions noted are these: Mus musculus, 24 h, 4T1 cells, read-out: IC50 of induced cell death. The procedure: 4T1-luc2 cells were plated in a 96-well plate (Costar) in 100 μl medium at a density of 10,000 cells per well and left over night to adhere. The next day, the medium was replaced with medium containing the experimental compounds: HQ4, HQ4-DTPA, HQ5, and Gambogic acid (GA), three wells per condition. After 24 h, cell viability was measured using a nonradioactive colorimetric MTS viability assay (Promega Benelux) according to the manufacturer’s protocol. Optical absorption was measured at 490 nm with a Versamax absorbance microplate reader (Molecular Devices).
Supplementary Figure 3: MTS cell viability assay of various agents.
Confluent cultures of 4T1 cells were incubated for 24hr with various concentrations HQ4, HQ4-DTPA, HQ5 or the natural anti-cancer compound Gambogic Acid (GA). Relative cell viability (%) was expressed as a percentage relative to the untreated control.
GA induced cell death with an IC50 of around 6µM.
as §2
For orientation: Tetrazolium dyes change colour on reduction, which living cells bring about.

pIC50: −log10 of the molar value.

For `O=C([O-])CN(CCN(CC(=O)[O-])CC(=O)[O-])CCN(CC(=O)[O-])CC(=O)[O-].[111In+3].[H+].[H+]` [[^111In]DTPA], in the series on 4T1-luc2 cells [1], the “accumulation in the dead cells area by radioactivity (RA) measurement” value is “neither [^111In]DTPA nor free ^111In-Cl3 accumulated in the dead cells area”. In the series with 4T1 tumor bearing mice, the radioactivity in kidneys is 5.0 %ID/w, the radioactivity in liver was determined as 0.6 %ID/w and the radioactivity in tumors was found to be 0.5 %ID/w. Further, the “total injected dose retained in the body” value in series [2] (24 h after injection) stood at 10%. Besides, in series [2] (48 h after injection), the “total injected dose retained in the body” value came to 8%. Besides, the “clearance rate relative to [111In]DTPA-HQ4” value in series [2] (fold faster than [111In]DTPA-HQ4) is on record as “about 8 fold”.

Turning to `CCCNS(=O)(=O)c1cccc2c3c(ccc12)[N+](CCCCCC(=O)NCCOCCOCCNC(=O)CN(CCN(CCN(CC(=O)O)CC(=O)O)CC(=O)O)CC(=O)O)=C(/C=C/C=C/C=C1/N(CCCCS(=O)(=O)[O-])c2ccc4ccccc4c2C1(C)C)C3(C)C` [HQ4-DTPA], the “accumulation in the area of dead cells by fluorescence imaging” value in the series with 4T1-luc2 cells [1] (FLI) was “strongly accumulated in the area of dead cells”.

As to `[Cl][In]([Cl])[Cl]` [^111In-Cl3, ^111indium-chloride], the “accumulation in the dead cells area by radioactivity (RA) measurement” value with 4T1-luc2 cells [1] was “neither [^111In]DTPA nor free ^111In-Cl3 accumulated in the dead cells area”.

What is called pIC50 is −log10 of the IC50, conventionally taken in molar units. Take `CC(C)=CCC[C@]1(C)C=Cc2c(O)c3c(c(CC=C(C)C)c2O1)O[C@]12C(=C[C@@H]4C[C@H]1C(C)(C)O[C@@]2(C/C=C(/C)C(=O)O)C4=O)C3=O` [GA, Gambogic acid]: in the series with 4T1-luc2 cells [3], the pIC50 is roughly 5.22.

The record behind these values is publication PMC5093207, “Pre-clinical Evaluation of a Cyanine-Based SPECT Probe for Multimodal Tumor Necrosis Imaging” (Molecular Imaging and Biology, 2016).
